Measurements reported in ChEMBL document CHEMBL4321815, “Discovery of an Extremely Potent Thiazine-Based β-Secretase Inhibitor with Reduced Cardiovascular and Liver Toxicity at a Low Projected Human Dose” (J Med Chem, 2019).
pEC50: −log10 of the molar value.

Columns and labels:
Canis familiaris = experiment: In vivo inhibition of BACE1 in po dosed Beagle dog assessed as plasma level causing 50% reduction in amyloidbeta42 level in CSF administered as single dose measured after 4 to 49 hrs; assay type: functional, organism-based; conditions: Canis lupus familiaris
Homo sapiens = experiment: In vivo inhibition of BACE1 in human assessed as reduction in amyloidbeta level at 40 mg administered once daily relative to control; assay type: functional

SMILES: CN1C(N)=N[C@](C)(c2cc(NC(=O)c3ccc(F)cn3)ccc2F)CS1(=O)=O [VERUBECESTAT]
- pEC50 (Canis familiaris): 7.47
- inhibition (INH) (Homo sapiens): 80%
